Measurements taken from article PMC9247345 (Journal of medicinal chemistry, 2011).
Read-outs that look alike come from different tables or passages of the source.

Experiments:
[1] = test system: P. falciparum W2 (chloroquine and pyrimethamine resistant); assay: in vitro antimalarial activity against W2; type: cell-based; settings: for EC50: Plasmodium falciparum; for fold decrease in antimalarial activity: W2, compared to compound 5; for times less active against W2: in comparison to reference compound 17; for antimalarial activity in words: W2
P. berghei = settings: rodent malaria models; cited from earlier work
[2] = test system: P. falciparum TM90-C2B (chloroquine, mefloquine, pyrimethamine and atovaquone resistant); assay: in vitro antimalarial activity against TM90-C2B; type: cell-based; settings: for fold decrease in antimalarial activity / antimalarial activity in words: TM90-C2B; for fold decrease in antimalarial activity: compared to compound 5; for fold more potent against TM90-C2B: compared to compound 27; for EC50: Plasmodium falciparum

SMILES: O=C1C(O)=C([C@H]2CC[C@H](c3ccc(Cl)cc3)CC2)C(=O)c2ccccc21 [ATO, atovaquone, reference compound]
- EC50 ([1]; W2, read-out: EC50 W2, Table 1, PEQ analogs): 0.53 nM
- EC50 ([1]; W2, read-out: EC50 W2, Table 2, 3-aryl PEQs): 0.53 nM

SMILES: CCCCc1cc2c(=O)c(C(=O)OC)c[nH]c2cc1OCCOc1ccccc1 [Compound 5, reference compound]
- fold stronger inhibition of W2 than TM90-C2B ([1]; W2 versus TM90-C2B): approximately 220 fold
- ED50, causal prophylactic and blood schizonticidal activity (P. berghei): 0.05 mg/kg

SMILES: COC(=O)c1c[nH]c2cc(OC)c(Cl)cc2c1=O [Compound 14]
- fold decrease in antimalarial activity [2]: ≥ 70 fold
- fold decrease in antimalarial activity [1]: ≥ 70 fold

SMILES: CCCCc1cc2c(=O)cc(C)[nH]c2cc1OCCOc1ccccc1 [Compound 15]
- fold decrease in antimalarial activity [2]: 4 fold
- fold decrease in antimalarial activity [1]: 4000 fold

SMILES: CCc1c(C)[nH]c2cc(OCCOc3ccccc3)c(C)cc2c1=O [Compound 18]
- fold more potent against TM90-C2B [2]: approximately 3 fold

SMILES: CCc1c(C)[nH]c2cc(OCCOc3ccccc3)c(OC)cc2c1=O [Compound 19]
- fold more potent against TM90-C2B [2]: approximately 3 fold

SMILES: CCc1c(C)[nH]c2cc(OCOC)c(Cl)cc2c1=O [Compound 20]
- times less active against W2 [1]: approximately four-fold less active

SMILES: CCc1c(C)[nH]c2cc(OCCCN3CCN(c4ccccc4)CC3)c(Cl)cc2c1=O [Compound 26]
- times less active against W2 [1]: approximately four-fold less active

SMILES: CCCCc1cc2c(=O)c(-c3ccncc3)c(C)[nH]c2cc1OCCOc1ccccc1 [Compound 32]
- antimalarial activity in words [2]: moderate activity in low μM or high nM range
- antimalarial activity in words [1]: moderate activity in low μM or high nM range

SMILES: CCCCc1cc2c(=O)c(-c3cccnc3)c(C)[nH]c2cc1OCCOc1ccccc1 [Compound 33]
- antimalarial activity in words [2]: moderate activity in low μM or high nM range
- antimalarial activity in words [1]: moderate activity in low μM or high nM range

SMILES: CCCCc1cc2c(=O)c(-c3c(C)noc3C)c(C)[nH]c2cc1OCCOc1ccccc1 [Compound 43]
- antimalarial activity in words [2]: approximately five times less potent

SMILES: C[C@H]1[C@@H](O)O[C@@H]2O[C@@]3(C)CC[C@H]4[C@H](C)CC[C@@H]1[C@@]24OO3 [DHA, Dihydroartemisinin, reference compound]
- EC50 ([2]; TM90, read-out: EC50 TM90-C2B, Table 1, PEQ analogs): 0.9 nM
- EC50 ([2]; TM90, read-out: EC50 TM90-C2B, Table 2, 3-aryl PEQs): 0.9 nM
- EC50 ([1]; W2, read-out: EC50 W2): 1.8 nM
